Experimental data taken from patent US20220062233A1 (The Board of Trustees of the Leland Stanford Junior …, priority 2018, published 2022).

Tests used:
[1] = system: M2-8 cells; test: M2-8 Cell viability Assay; type: cell-based; conditions: at the concentration of 1000 nM
[2] = biological target: T1, interaction between Supt4h and NGN (subunit of Supt5h) (Homo sapiens, UniProt O00267+P63272); test: Split Gaussia luciferase complementation assay (M2-8 Luciferase); type: cell-based; conditions: M2-8 cells
T1 construct: expressed in transfected cells
Description: A. Split Gaussia Luciferase Complementation Assay […]
i: pNBR-X1-Supt4-Gluc1 and pNEBR-X1-NGN-Gluc2
The HA-Supt4h and Flag-NGN fragments are amplified by PCR using the plasmid pHA-Supt4h-YC and pFlag-NGN-YN and sub-cloned individually into pcDNA3.1-Gluc1 and pcDNA3.1-Gluc2 (described in “A highly sensitive protein-protein interaction assay based on Gaussia luciferase” published at Nat Methods. 2006 December; 3(12):977-9. Epub 2006 Nov. 12). Then HA-Supt4h-Gluc1 and Flag-NGN-Gluc2 are amplified by PCR and inserted to pNEBR-X1-Hygro (New England BioLabs), which contain RheoSwitch responsive element under the control of RheoSwitch ligand. […]
ii: pNEBR-X1-Supt4h-G1-NGN-G2
PCR products containing the sequence from 5XRE to polyA in pNEBR-X1-NGN-G2 are inserted to pNEBR-X1-Supt4h-G1 at Pcil site to generate Supt4h-G1 and NGN-G2 bidirectional under their own RheoSwitch responsive element and polyA in the same plasmid. […]
b. Stable Cloned Cell Line i: 293-R1 is a cloned cell line which is engineered to constitutively express RSL1 receptor/activator by transfecting HEK 293 cells with pNEBR-R1 plasmid (New England BioLabs) and selected with blasticidin. […]
ii: M2-8 is a cloned 293-R1 cell which can inducibly express pNEBR-X1-Supt4h-G1-NGN-G2 by addition of RSL1. Two point mutations ([…] and M110I) are introduced to the GL1 and GL2 for better stability according to “A high-throughput cell-based Gaussia luciferase reporter assay for identifying modulators of fibulin-3 secretion” published in J Biomol Screen. 2013 July; 18(6):647-58. The cell line is selected by hygromycin. […]
c. Cell Culture and Transfection Condition
All the HEK-293 cells and derivative clones are maintained in DMEM containing 10% FBS plus corresponding antibiotics (250 μg/ml hygromycin B, 10 μg/ml blasticidin or both) at 37° C., 5% CO2. All the transfections are done by using Lipofectamine 2000 (Invitrogen) according to the manufacturer's instructions. […]
d. Bioluminescence Assay from Cell Lysates
Plasmids harboring the Gluc1 and Gluc2 are co-transfected in a 1:1 ratio into 293-R1 cells plated on tissue culture treated 24-well plates using Lipofectamine 2000 according to the manufacturer's instructions. For stable M2-8 cells, the cells are directly plated into 96-well or 384-well white plates. Twenty-four hours later, RheoSwitch ligand with or without test compound is added to the cells for induction/drug treatment. After 24 hr, the cells are washed with PBS and the plate was stored at −20° C. overnight. Lysis buffer [30 mM Tris-HCl (pH 8.0) 5 mM NaCl, 0.1% Triton X-100] with 10 μg/ml native coelenterazine (Nanolight Technology) is then added to the cells at room temperature for one hour in the dark. After shaking for about 1 min, 40 μl of cell lysate are transferred to a white 96-well plate. For M2-8 in white micro plate, no transfer is needed. Signal intensities (integrated 100 ms) were read on Tecan Infinite M200 or M1000.
The split Gaussia luciferase complementation assay measures the interaction between Sup4h and NGN. NGN is the subunit of Supt5h that binds to Supt4h.

| Structure (SMILES) | M2-8 Cell viability [1] | IC50 [2] |
| --- | --- | --- |
| OCc1ccc(CN[C@@H]2CCCc3c2[nH]c2ccc(Br)nc32)s1 [Compound 67] | + (cell viability is greater than 50% at the concentration of 1000 nM) | ≤ 100 nM |
| Brc1ccc2[nH]c3c(c2c1)CCC[C@H]3NCc1ccc2ccccc2c1 [Compound 20, (R)-6-bromo-N-(naphthalen-2-ylmethyl)-2,3,4,9-tetrahydro-1H-carbazol-1-amine] | + (cell viability is greater than 50% at the concentration of 1000 nM) | 101 to 300 nM |
| CC(=O)c1ccc2[nH]c3c(c2c1)CCC[C@H]3NCc1ccccc1 [Compound 46, (R)-1-(1-(benzylamino)-2,3,4,9-tetrahydro-1H-carbazol-6-yl)ethan-1-one] | + (cell viability is greater than 50% at the concentration of 1000 nM) | 301 to 1000 nM |
| CC(C)(O)c1ccc(C(CO)N[C@@H]2CCCc3c2[nH]c2ccc(Br)cc32)cc1 (mixture of isomers) [Compound 51, 2-(4-(1-(((R)-6-bromo-2,3,4,9-tetrahydro-1H-carbazol-1-yl)amino)-2-hydroxyethyl)phenyl) propan-2-ol] | + (cell viability is greater than 50% at the concentration of 1000 nM) | 301 to 1000 nM |
| COc1ccccc1CN[C@@H]1CCCc2c1[nH]c1ccc(Br)cc21 [Compound 23, (R)-6-bromo-N-(2-methoxybenzyl)-2,3,4,9-tetrahydro-1H-carbazol-1-amine] | + (cell viability is greater than 50% at the concentration of 1000 nM) | 301 to 1000 nM |
| OCC#Cc1ccc2[nH]c3c(c2c1)CCC[C@H]3NCc1ccccc1 [Compound 7, (R)-3-(1-(benzylamino)-2,3,4,9-tetrahydro-1H-carbazol-6-yl)prop-2-yn-1-ol] | + (cell viability is greater than 50% at the concentration of 1000 nM) | 301 to 1000 nM |
| CC1(C)CCC(NCc2ccccc2)c2[nH]c3ccc(Br)cc3c21 (centres unmarked) [Compound 16] | + (cell viability is greater than 50% at the concentration of 1000 nM) | > 1000 nM |
| Brc1ccc2[nH]c3c(c2c1)CCC[C@H]3NCc1ccc(I)cc1 [Compound 40, (R)-6-bromo-N-(4-iodobenzyl)-2,3,4,9-tetrahydro-1H-carbazol-1-amine] | + (cell viability is greater than 50% at the concentration of 1000 nM) | 101 to 300 nM |
| CC(C)(OCCO)c1ccc(CN[C@@H]2CCCc3c2[nH]c2ccc(Br)cc32)cc1 [Compound 56, (R)-2-((2-(4-(((6-bromo-2,3,4,9-tetrahydro-1H-carbazol-1-yl)amino)methyl)phenyl)propan-2-yl)oxy)ethan-1-ol] | + (cell viability is greater than 50% at the concentration of 1000 nM) | ≤ 100 nM |
| Brc1ccc2[nH]c3c(c2c1)CCC[C@H]3NCc1ccc(CN2CCOCC2)cc1 [Compound 72] | + (cell viability is greater than 50% at the concentration of 1000 nM) | ≤ 100 nM |
| CN(C)c1ccc(CN[C@@H]2CCCc3c2[nH]c2ccc(Br)cc32)cc1 [Compound 29, (R)-6-bromo-N-(4-(dimethylamino)benzyl)-2,3,4,9-tetrahydro-1H-carbazol-1-amine] | + (cell viability is greater than 50% at the concentration of 1000 nM) | 101 to 300 nM |
| CC(=O)N1CCN(Cc2ccc(CN[C@@H]3CCCc4c3[nH]c3ccc(Br)cc43)cc2)CC1 [Compound 73] | + (cell viability is greater than 50% at the concentration of 1000 nM) | 101 to 300 nM |
| c1ccc(CN[C@@H]2CCCc3c2[nH]c2ccc(-c4ccccc4)cc32)cc1 [Compound 8, (R)—N-benzyl-6-phenyl-2,3,4,9-tetrahydro-1H-carbazol-1-amine] | + (cell viability is greater than 50% at the concentration of 1000 nM) | > 1000 nM |
| Cn1cncc1CN[C@@H]1CCCc2c1[nH]c1ccc(Br)cc21 [Compound 35, (R)-6-bromo-N-((1-methyl-1H-imidazol-5-yl)methyl)-2,3,4,9-tetrahydro-1H-carbazol-1-amine] | + (cell viability is greater than 50% at the concentration of 1000 nM) | 301 to 1000 nM |
| Oc1ccc(-c2ccc3[nH]c4c(c3c2)CCC[C@H]4NCc2ccccc2)cc1 [Compound 10, (R)-4-(1-(benzylamino)-2,3,4,9-tetrahydro-1H-carbazol-6-yl)phenol] | + (cell viability is greater than 50% at the concentration of 1000 nM) | > 1000 nM |
| C=C(C)c1ccc(CN[C@@H]2CCCc3c2[nH]c2ccc(Br)cc32)cc1 [Compound 47, (R)-6-bromo-N-(4-(prop-1-en-2-yl)benzyl)-2,3,4,9-tetrahydro-1H-carbazol-1-amine] | + (cell viability is greater than 50% at the concentration of 1000 nM) | 101 to 300 nM |
| c1ccc(CN[C@@H]2CCCc3c2[nH]c2ccccc32)cc1 [Compound 4, (R)—N-benzyl-2,3,4,9-tetrahydro-1H-carbazol-1-amine] | + (cell viability is greater than 50% at the concentration of 1000 nM) | > 1000 nM |
| CC(C)(O)c1ccc(C(CF)N[C@@H]2CCCc3c2[nH]c2ccc(Br)cc32)cc1 (single isomer, unassigned) [Compound 55] | + (cell viability is greater than 50% at the concentration of 1000 nM) | ≤ 100 nM |
| Oc1cccc(-c2ccc3[nH]c4c(c3c2)CCC[C@H]4NCc2ccccc2)c1 [Compound 9, (R)-3-(1-(benzylamino)-2,3,4,9-tetrahydro-1H-carbazol-6-yl)phenol] | + (cell viability is greater than 50% at the concentration of 1000 nM) | 301 to 1000 nM |
| CCc1ccc2[nH]c3c(c2c1)CCC[C@H]3NCc1ccccc1 [Compound 6] | + (cell viability is greater than 50% at the concentration of 1000 nM) | 301 to 1000 nM |
| Brc1ccc2[nH]c3c(c2c1)CCC[C@H]3NCc1ccc(N2CCCC2)cc1 [Compound 22, (R)-6-bromo-N-(4-(pyrrolidin-1-yl)benzyl)-2,3,4,9-tetrahydro-1H-carbazol-1-amine] | + (cell viability is greater than 50% at the concentration of 1000 nM) | 101 to 300 nM |
| N[C@@H]1CCCc2c1[nH]c1ccc(Br)cc21 [Compound 15] | + (cell viability is greater than 50% at the concentration of 1000 nM) | > 1000 nM |
| OCc1cccc(CN[C@@H]2CCCc3c2[nH]c2ccc(Br)cc32)c1 [Compound 57, (R)-(3-(((6-bromo-2,3,4,9-tetrahydro-1H-carbazol-1-yl)amino)methyl)phenyl)methanol] | + (cell viability is greater than 50% at the concentration of 1000 nM) | ≤ 100 nM |
| COCC(N[C@@H]1CCCc2c1[nH]c1ccc(Br)cc21)c1ccc(CN2CCOCC2)cc1 (some centres unmarked) [Compound 61] | + (cell viability is greater than 50% at the concentration of 1000 nM) | 101 to 300 nM |
| Cn1c2c(c3cc(Br)ccc31)CCCC2NCc1ccccc1 (centres unmarked) [Compound 18] | + (cell viability is greater than 50% at the concentration of 1000 nM) | > 1000 nM |
| CC1(C)Cc2c([nH]c3ccc(Br)cc23)[C@H](NCc2ccccc2)C1 [Compound 17] | + (cell viability is greater than 50% at the concentration of 1000 nM) | > 1000 nM |
| CC(C)(O)c1ccc(C(CF)N[C@@H]2CCCc3c2[nH]c2ccc(Br)cc32)cc1 (single isomer, unassigned) [Compound 54] | + (cell viability is greater than 50% at the concentration of 1000 nM) | ≤ 100 nM |
| c1ccc(CN[C@@H]2CCCc3c2[nH]c2ccc(-c4cn[nH]c4)cc32)cc1 [Compound 11, (R)—N-benzyl-6-(1H-pyrazol-4-yl)-2,3,4,9-tetrahydro-1H-carbazol-1-amine] | + (cell viability is greater than 50% at the concentration of 1000 nM) | > 1000 nM |
